Source: patent US20090238808A1, “Process for the identification of novel enzyme interacting compounds” (priority 2005, published 2009)

Key:
Assay in all cases: In-lysate competition binding with kinobeads, Jurkat lysate, iTRAQ MS, relative intensity of identified proteins (Table 22)
Conditions in all cases: DMSO control = 1.0
[1] = target: T1, proteins captured on kinobeads from Jurkat cell lysate (Homo sapiens, UniProt P51451)
T1 construct: endogenous in cells; host or cells: Jurkat clone E6-1 lysate
Protocol: (§1) This example illustrates competition binding in cell lysates (see particularly the third aspect of the invention). A test compound, Bisindolylmaleimide VIII (Bis VIII, a well known kinase inhibitor; Davies et al., 2000. Specificity and mechanism of action of some commonly used protein kinase inhibitors. Biochemical Journal 351 (Pt 1): 95-105) was added to a cell lysate thereby allowing the test compound to bind to the target proteins in the lysate. Then the lysate was contacted with the kinobeads affinity matrix to capture remaining free target proteins. The proteins bound to the kinobeads matrix were then eluted with detergent-containing buffer, separated on a SDS-polyacryamide gel and analyzed by immunodetection (Western blots) or mass spectrometry detection.
(§2) For the quantitative detection of proteins by mass spectrometry proteins were eluted from the affinity matrix and subsequently separated by SDS-Polyacrylamide gel elecrophoresis. Suitable gel areas were cut out and subjected to in-gel proteolytic digestion with trypsin.
(§3) Four tryptic digest samples (corresponding to three different Bis VIII concentrations in the lysate and one DMSO control) were labeled with ITRAQ reagents and the combined samples were analyzed in a single LC-MS/MS mass spectrometry analysis followed by peak quantification in the MS/MS spectrum (Ross et al., 2004. Multiplexed protein quantitation in Saccharomyces cerevisiae using amine-reactive isobaric tagging reagents. Mol. Cell. Proteomics 3(12): 1154-1169). […] Binding curves for individual kinases are shown (FIG. 5). The relative intensity 50 (RI50) values representing the affinity of kinase-compound pairs are similar to IC50 values reported by kinase enzyme assays (Davies et al., 2000. Specificity and mechanism of action of some commonly used protein kinase inhibitors. Biochemical Journal 351 (Pt 1): 95-105).
(§4) Aliqots of Jurkat lysate (10 mg protein) were incubated with different Bis VIII concentrations for one hour at 4° C. (0.025 μM, 0.074 μM, 0.22 μM, 0.67 μM, 2.0 μM and 6.0 μM final concentration of Bis VIII). To this end Bis VIII solutions were prepared in 100% DMSO as solvent that corresponded to 200 fold desired final Bis VIII concentration (Bis VIII from Alexis Biochemicals cat. number ALX 270-056). Five μl of these solutions were added to 1 ml of lysate resulting in the indicated final concentrations. For a control experiment 5 μl of DMSO without Bis VIII were used.
(§5) To each preincubated lysate sample 40 μl of kinobeads (see example 1) were added and incubated for one hour at 4° C. During the incubation the tubes were rotated on an end-over-end shaker (Roto Shake Genie, Scientific Industries Inc.). Beads were collected by centrifugation, transfered to Mobicol-columns (MoBiTech 10055) and washed with 10 ml 1×DP buffer containing 0.4% NP40 detergent, followed by a wash with 5 ml 1×DP buffer with 0.2% NP40. To elute the bound proteins, 100 μl 2×SDS sample buffer was added, the column was heated for 30 minutes at 50° C. and the eluate was transferred to a microfuge tube by centrifugation. Proteins were then separated by SDS-Polyacrylamide electrophoresis (SDS-PAGE). The composition and preparation of buffers is described in example 2.
(§6) The peptide extracts of samples treated with different concentrations of the test compound (0.074 μM, 0.22 μM and 0.67 μM Bis VIII) and the solvent control (0.5% DMSO) were treated with different isomers of the isobaric tagging reagent (iTRAQ Reagents Multiplex Kit, part number 4352135, Applied Biosystems, Foster City, Calif., USA). The iTRAQ reagents are a set of multiplexed, amine-specific, stable isotope reagents that can label all peptides in up to four different biological samples enabling simultaneous identification and quantitation of peptides. The iTRAQ reagents were used according to instructions provided by the manufacturer. […]

[2] = target: T2, proteins captured on kinobeads from Jurkat cell lysate (Homo sapiens, UniProt P07947)
T2 construct: endogenous in cells; host or cells: Jurkat clone E6-1 lysate
Protocol: as §1, §2, §3, §4, §5, §6

[3] = target: T3, proteins captured on kinobeads from Jurkat cell lysate (Homo sapiens, UniProt P12931)
T3 construct: endogenous in cells; host or cells: Jurkat clone E6-1 lysate
Protocol: as §1, §2, §3, §4, §5, §6

[4] = target: T4, proteins captured on kinobeads from Jurkat cell lysate (Homo sapiens, UniProt P06241)
T4 construct: endogenous in cells; host or cells: Jurkat clone E6-1 lysate
Protocol: as §1, §2, §3, §4, §5, §6

[5] = target: T5, proteins captured on kinobeads from Jurkat cell lysate (Homo sapiens, UniProt P15559)
T5 construct: endogenous in cells; host or cells: Jurkat clone E6-1 lysate
Protocol: as §1, §2, §3, §4, §5, §6

[6] = system: proteins captured on kinobeads from Jurkat cell lysate; parameters: species or system human
Protocol: as §1, §2, §3, §4, §5, §6

[7] = target: T6, proteins captured on kinobeads from Jurkat cell lysate (Homo sapiens, UniProt Q00535)
T6 construct: endogenous in cells; host or cells: Jurkat clone E6-1 lysate
Protocol: as §1, §2, §3, §4, §5, §6

[8] = target: T7, proteins captured on kinobeads from Jurkat cell lysate (Homo sapiens, UniProt P30291)
T7 construct: endogenous in cells; host or cells: Jurkat clone E6-1 lysate
Protocol: as §1, §2, §3, §4, §5, §6

[9] = target: T8, proteins captured on kinobeads from Jurkat cell lysate (Homo sapiens, UniProt P45983)
T8 construct: endogenous in cells; host or cells: Jurkat clone E6-1 lysate
Protocol: as §1, §2, §3, §4, §5, §6

SMILES: Cn1cc(C2=C(c3cn(CCCN)c4ccccc34)C(=O)NC2=O)c2ccccc21 [Bis VIII, Bisindolylmaleimide VIII]
- Relative Intensity, BLK ([1]; 0.074 uM in lysate): 0.90
- Relative Intensity, BLK ([1]; 0.67 uM in lysate): 0.83
- Relative Intensity, YES (YES1) ([2]; 0.074 uM in lysate): 0.82
- Relative Intensity, YES (YES1) ([2]; 0.67 uM in lysate): 0.87
- Relative Intensity, SRC ([3]; 0.074 uM in lysate): 0.93
- Relative Intensity, SRC ([3]; 0.67 uM in lysate): 0.94
- Relative Intensity, FYN ([4]; 0.074 uM in lysate): 0.91
- Relative Intensity, FYN ([4]; 0.67 uM in lysate): 0.93
- Relative Intensity, NQO1 ([5]; 0.074 uM in lysate): 0.84
- Relative Intensity, NQO1 ([5]; 0.67 uM in lysate): 0.87
- Relative Intensity, Abl1 ([6]; 0.074 uM in lysate): 0.81
- Relative Intensity, Abl1 ([6]; 0.67 uM in lysate): 1.03
- Relative Intensity, CDK5 ([7]; 0.074 uM in lysate): 0.92
- Relative Intensity, CDK5 ([7]; 0.67 uM in lysate): 0.95
- Relative Intensity, Wee1 ([8]; 0.074 uM in lysate): 1.21
- Relative Intensity, Wee1 ([8]; 0.67 uM in lysate): 1.14
- Relative Intensity, JNK1 (MAPK8) ([9]; 0.074 uM in lysate): 0.91
- Relative Intensity, JNK1 (MAPK8) ([9]; 0.67 uM in lysate): 0.83
